Results on 20 compounds are retold here after ChEMBL document CHEMBL2169756, “Recent results in protein kinase inhibition for tropical diseases” (Bioorg Med Chem Lett, 2012).

The term IC50 denotes the point on the concentration scale where inhibition reaches its midpoint. For orientation: IC90 means the concentration at which the effect reaches the 90% level. A high value points to weaker potency.

Each structure is given as a SMILES string. Values after ≈ are worked out from the molar mass of the structure shown. Where only a bound is given, the exact number is not on record here.

In series [1] the target is cGMP-dependent protein kinase (Plasmodium falciparum, UniProt W7JX98). Description: Inhibition of PKG in Plasmodium falciparum 3D7 microgametes.
The next series concerns Toxoplasma gondii. As to the kind of experiment: Antiprotozoal activity against Toxoplasma gondii expressing low level of ROP18 infected in human HFF cells. It is filed as functional, organism-based.
Series [2] has as its target T1, Cdc2-related kinase (Leishmania major, UniProt O96526).
T1 sequence (O96526 whole entry): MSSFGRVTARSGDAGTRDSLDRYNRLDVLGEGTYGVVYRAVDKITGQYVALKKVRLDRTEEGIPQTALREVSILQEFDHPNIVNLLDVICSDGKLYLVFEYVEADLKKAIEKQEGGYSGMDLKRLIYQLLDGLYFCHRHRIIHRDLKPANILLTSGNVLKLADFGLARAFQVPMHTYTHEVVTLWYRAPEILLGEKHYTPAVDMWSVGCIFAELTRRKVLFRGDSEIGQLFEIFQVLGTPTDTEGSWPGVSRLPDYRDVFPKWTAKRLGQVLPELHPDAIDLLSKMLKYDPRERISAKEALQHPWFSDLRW
Description: Inhibition of Leishmania major CRK3 expressed in Escherichia coli BL21 (DE3) using 5FAM-GGGRSPGRRRRK-OH as substrate after 60 mins by IMAP assay.

Series [3] deals with Mycobacterium tuberculosis. As to the kind of experiment: Antitubercular activity against Mycobacterium tuberculosis H37Rv by high throughput assay. It is filed as functional.
Series [4] is described as follows: Selectivity ratio of cytotoxicity for […] to IC50 for Mycobacterium tuberculosis H37Rv. It is filed as cell-based.
Series [5] deals with Trypanosoma brucei brucei. As to the kind of experiment: Antitrypanosomal activity against bloodstream form of Trypanosoma brucei brucei 427 after 72 hrs by resazurin microplate assay. It is filed as functional, organism-based. Particulars: Trypanosoma brucei, 427, 72 h. A general note: Resazurin is reduced to fluorescent resorufin, in cell work by metabolically active cells.

Series [6] relates to Leishmania donovani. As to the kind of experiment: Antileishmanial activity against Leishmania donovani MHOM/SD/62/1SCL2D promastigotes after 72 hrs by resazurin reduction assay. It is filed as functional, organism-based.
Another series concerns Trypanosoma brucei. Description: Antitrypanosomal activity against Trypanosoma brucei infected in Swiss Webster mouse assessed as cure rate at 20 mg/kg, ip bid administered 4 days post infection. It is filed as functional. Particulars: route intraperitoneal.
For series [7], the system named is Trypanosoma brucei brucei. Description: Antitrypanosomal activity against procyclic Trypanosoma brucei brucei 29-13 after 72 hrs by resazurin microplate assay. It is filed as functional, organism-based. The conditions noted are these: 29-13, 72 h.
Series [8] relates to Leishmania donovani. Description: Antileishmanial activity against Leishmania donovani MHOM/SD/62/1SCL2D amastigotes after 72 hrs by resazurin reduction assay. It is filed as functional, organism-based.
In series [9] the target is T2, Calcium-dependent protein kinase 4 (Plasmodium falciparum (isolate 3D7), UniProt Q8IBS5).
T2 sequence (Q8IBS5 whole entry): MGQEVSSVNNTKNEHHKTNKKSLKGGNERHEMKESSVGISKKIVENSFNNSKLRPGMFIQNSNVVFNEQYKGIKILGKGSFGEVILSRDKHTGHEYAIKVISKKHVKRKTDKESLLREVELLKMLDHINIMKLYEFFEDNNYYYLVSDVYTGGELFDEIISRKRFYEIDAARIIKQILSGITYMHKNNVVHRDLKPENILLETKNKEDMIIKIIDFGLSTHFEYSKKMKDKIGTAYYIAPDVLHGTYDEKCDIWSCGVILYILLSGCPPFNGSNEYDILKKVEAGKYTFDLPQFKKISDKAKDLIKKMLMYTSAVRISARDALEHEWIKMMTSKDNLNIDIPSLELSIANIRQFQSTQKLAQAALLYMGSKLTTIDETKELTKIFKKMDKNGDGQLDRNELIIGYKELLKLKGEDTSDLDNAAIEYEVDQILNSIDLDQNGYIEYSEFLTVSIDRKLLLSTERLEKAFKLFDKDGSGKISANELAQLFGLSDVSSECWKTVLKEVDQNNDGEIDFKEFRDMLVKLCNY
Description: Inhibition of CDPK4 in Plasmodium falciparum 3D7 microgametes.

The subject of another series is Leishmania major. Description: Antileishmanial activity against Leishmania major promastigotes. It is filed as functional, organism-based.
The target in series [10] is T1, Cdc2-related kinase. Description: Inhibition of Leishmania major CRK3 expressed in Escherichia coli BL21 (DE3) after 30 mins by autoradiography.
Series [11] in a line: Inhibition of Plasmodium falciparum MPK.
The target in series [12] is Cyclin-dependent kinase 7 (Homo sapiens, UniProt P50613). Description: Inhibition of human CDK7.
Series [13] has as its target Cyclin-dependent kinase 2 (Homo sapiens, UniProt P24941). Description: Inhibition of human CDK2.
Series [14] has as its target Cyclin-dependent kinase 6 (Homo sapiens, UniProt Q00534). As to the kind of experiment: Inhibition of human CDK6.
In series [15] the target is Cyclin-dependent kinase 1 (Homo sapiens, UniProt P06493). Description: Inhibition of human CDK1.
A further series relates to Plasmodium falciparum. As to the kind of experiment: Antimalarial activity against Plasmodium falciparum. It is filed as functional, organism-based.

Sequence of Cyclin-dependent kinase 1 (P06493 whole entry): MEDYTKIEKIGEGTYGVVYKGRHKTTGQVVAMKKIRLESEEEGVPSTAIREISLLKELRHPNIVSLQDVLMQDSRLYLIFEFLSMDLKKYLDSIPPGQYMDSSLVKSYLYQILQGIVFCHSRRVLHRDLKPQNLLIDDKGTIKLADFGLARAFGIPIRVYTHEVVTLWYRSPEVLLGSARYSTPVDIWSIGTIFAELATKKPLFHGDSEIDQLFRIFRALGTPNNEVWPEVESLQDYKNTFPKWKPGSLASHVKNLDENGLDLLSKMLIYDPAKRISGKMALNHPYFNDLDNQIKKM
Sequence of cGMP-dependent protein kinase (W7JX98 whole entry): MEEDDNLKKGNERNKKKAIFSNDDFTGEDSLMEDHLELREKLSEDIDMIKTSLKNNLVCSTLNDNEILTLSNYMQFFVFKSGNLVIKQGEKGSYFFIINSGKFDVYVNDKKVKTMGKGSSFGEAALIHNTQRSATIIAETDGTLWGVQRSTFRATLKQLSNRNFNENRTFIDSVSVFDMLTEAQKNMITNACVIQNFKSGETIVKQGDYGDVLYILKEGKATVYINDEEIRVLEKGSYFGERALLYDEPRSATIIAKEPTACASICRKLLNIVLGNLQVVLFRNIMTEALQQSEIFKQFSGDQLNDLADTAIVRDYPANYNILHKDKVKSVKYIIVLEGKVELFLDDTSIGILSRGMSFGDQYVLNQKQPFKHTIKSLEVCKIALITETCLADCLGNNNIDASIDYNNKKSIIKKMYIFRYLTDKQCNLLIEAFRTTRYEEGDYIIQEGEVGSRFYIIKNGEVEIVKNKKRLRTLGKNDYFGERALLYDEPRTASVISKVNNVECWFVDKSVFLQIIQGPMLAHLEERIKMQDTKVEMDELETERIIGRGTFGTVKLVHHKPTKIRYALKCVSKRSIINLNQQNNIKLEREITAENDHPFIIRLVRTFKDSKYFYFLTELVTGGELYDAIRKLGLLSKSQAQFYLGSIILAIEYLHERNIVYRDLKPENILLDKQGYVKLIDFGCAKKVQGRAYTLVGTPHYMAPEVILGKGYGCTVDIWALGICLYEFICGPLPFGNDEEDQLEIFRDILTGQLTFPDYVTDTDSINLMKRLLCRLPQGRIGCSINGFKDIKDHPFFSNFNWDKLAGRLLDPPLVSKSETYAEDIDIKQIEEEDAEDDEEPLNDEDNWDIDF
Sequence of Cyclin-dependent kinase 7 (P50613 whole entry): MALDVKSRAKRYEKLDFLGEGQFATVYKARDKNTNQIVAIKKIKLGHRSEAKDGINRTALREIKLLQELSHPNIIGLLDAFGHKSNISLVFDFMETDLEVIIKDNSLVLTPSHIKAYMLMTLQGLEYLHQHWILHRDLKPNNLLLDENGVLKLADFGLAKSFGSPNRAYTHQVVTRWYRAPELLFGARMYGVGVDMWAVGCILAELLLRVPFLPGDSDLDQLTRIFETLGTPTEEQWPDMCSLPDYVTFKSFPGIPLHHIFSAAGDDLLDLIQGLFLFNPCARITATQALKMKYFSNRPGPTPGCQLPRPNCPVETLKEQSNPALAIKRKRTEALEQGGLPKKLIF
Sequence of Cyclin-dependent kinase 6 (Q00534 whole entry): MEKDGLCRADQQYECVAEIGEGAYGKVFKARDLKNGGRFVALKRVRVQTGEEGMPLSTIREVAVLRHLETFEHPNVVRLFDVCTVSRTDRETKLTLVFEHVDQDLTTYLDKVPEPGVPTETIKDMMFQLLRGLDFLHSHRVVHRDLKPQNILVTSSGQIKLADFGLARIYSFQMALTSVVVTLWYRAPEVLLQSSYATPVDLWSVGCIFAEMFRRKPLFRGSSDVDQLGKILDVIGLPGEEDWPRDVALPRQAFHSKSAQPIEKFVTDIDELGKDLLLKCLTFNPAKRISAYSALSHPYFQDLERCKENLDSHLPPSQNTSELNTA

As for `CN1CCC(c2cc(-c3ccncc3)c(-c3ccc(F)cc3)[nH]2)CC1`, it took 8 nM to reach half-maximal inhibition in series [1] (IC50).

As for `Cn1c(=O)c(/C=C/c2ccc3c(c2)OCO3)nc2ccccc21`, the IC50 in the series on Toxoplasma gondii was 2 nM.

`COc1cc(-c2ccc3nc(NC(=O)C4CCCCC4)nn3c2)ccc1O`: the IC50 at Cdc2-related kinase [2] amounted to 240 nM.

Take `CC(=O)c1cccc(-c2cnn3ccc(Nc4ccc(N5CCOCC5)cc4)nc23)c1`: the IC50 on Cdc2-related kinase [2] was 260 nM.

As to `COc1ccccc1-c1cnn2c(Nc3cccc(Cl)c3)cc(C)nc12`, in series [3], the 90% effect level (IC90) was put at 1.7 µg/mL (≈ 4.66 µM). Moreover, the selectivity ratio in series [4] worked out at 19.

`Oc1ccccc1-c1nc(NCc2cccnc2)c2ccccc2n1` came in with an IC50 against Cdc2-related kinase [2] of 11000 nM.

As for `COc1ccccc1C(=O)c1cnc(NC2CCN(C(=O)Nc3ccccc3)CC2)nc1N`, the IC50 in [5] was 70 nM; in the series on Leishmania donovani [6] it was 1000 nM; in [7], 70 nM; with Leishmania donovani [8], 1000 nM. In the series with Trypanosoma brucei, the Activity is recorded as 100%.

With `O=C(OCn1nnc2ccccc2c1=O)c1ccccc1`, the 90% effect level in series [3] (IC90) was put at 1.4 µg/mL (≈ 4.98 µM). Besides, the selectivity ratio in series [4] was greater than 28.

`Cc1cc(C)cc(-c2ccc3nc(NC(=O)C4CCCCCC4)n(C)c3c2)c1` yielded an IC50 at Cdc2-related kinase [2] of 5 nM.

Consider `CC(C)(C)n1nc(-c2ccc3ccccc3c2)c2c(N)ncnc21`, for which the IC50 in series [9] stood at 177 nM.

Regarding `Cc1cc(C)cc(-c2ccc3nc(NC(=O)C4CCCCC4)nn3c2)c1`, the concentration for half-maximal inhibition (IC50) on Cdc2-related kinase [2] came to 20 nM.

On to `COc1ccc(-n2nnc3c(N4CCCC(O)C4)nc(CC4CCCCC4)nc32)cc1` (centres undefined), for which the IC50 in the series with Leishmania major amounted to 8600 nM; against Cdc2-related kinase [10], 5300 nM.

In the case of `O=C(CBr)N(c1ccccc1)S(=O)(=O)c1cc(Cl)sc1Cl`, the IC50 in series [11] is 600 nM; in series [12], greater than 20000 nM; in [13], greater than 20000 nM; in series [14] it was greater than 20000 nM; in series [15], greater than 20000 nM; in the series with Plasmodium falciparum, 17000 nM.

In turn, `CCN(Cc1ccc(/C=C2\C(=O)Nc3ccccc32)o1)S(C)(=O)=O` had an IC50 against Cdc2-related kinase [2] of 510 nM.

Turning to `Cc1ccc(N(C(=O)CCl)S(=O)(=O)c2cc(Cl)sc2Cl)cc1`, in series [11], the IC50 came to 127000 nM.

Compound `Cc1cccc(-c2ccc3nc(NC(=O)C4CCCCC4)nn3c2)c1` registered an IC50 against Cdc2-related kinase [2] of 60 nM.

As to `CC(C)(C)c1ccc(C(=O)Nc2nnc(-c3cccnc3)o2)cc1`, in [3], the IC90 came to 0.84 µg/mL (≈ 2.61 µM). Also, in series [4], the selectivity ratio is greater than 48.

In turn, `O=C(Nc1nnc(-c2ccco2)o1)c1ccc(Oc2ccccc2)cc1` gave an IC90 in series [3] of less than 0.2 µg/mL. In [4], the selectivity ratio was greater than 75.

`O=S(=O)(Nc1ccccc1)c1cc(Cl)sc1Cl`: in series [11], the IC50 stood at 15000 nM.

`Cc1ccc(NC(=O)Nc2ccnc(-c3cccnc3)n2)cc1`: at Cdc2-related kinase [2], half-maximal inhibition (IC50) required 1500 nM.
